pKi: −log10 of the molar value. “Also recorded” adds a separate entry of the source. Read-outs that look alike come from different tables or passages of the source.
Columns and labels:
[1] = chelating agent with gallium, cited from earlier work
[2] = Hydrophilicity/lipophilicity judged from HPLC retention (RP C8); assay type: physicochemical; settings: based on HPLC retention time
[3] = tested on: PSMA+ PC3 PIP and PSMA− PC3 flu tumors
PSMA = target: T1, PSMA (Homo sapiens, UniProt Q04609); assay: PSMA inhibition assay (fluorescence-based, NAAG hydrolysis, Amplex Red); assay type: biochemical; settings: for pKi: lysates of LNCaP cell extracts, 4 μM NAAG, Cheng-Prusoff conversion
T1 construct: endogenous in cells; host or cells: LNCaP cell lysate
Procedure: The PSMA inhibitory activity of 1, 2 and DKFZ-PSMA-11 and the corresponding natural Ga-labeled analogs Ga-1 and Ga-2 were determined using a fluorescence-based assay according to a previously reported procedure (Banerjee et al. (2011) Angewandte Chemie 50, 9167-70) (Table 1). Briefly, lysates of LNCaP cell extracts (25 μL) were incubated with the inhibitor (12.5 μL) in the presence of 4 μM N-acetylaspartylglutamate (NAAG) (12.5 μL) for 2 h. The amount of the glutamate released by NAAG hydrolysis was measured by incubating with a working solution (50 μL) of the Amplex Red Glutamic Acid Kit (Life Technologies, Grand Island, N.Y.) for 1 h.
Fluorescence was measured with a VICTOR3V multilabel plate reader (Perkin Elmer Inc., Waltham, Mass.) with excitation at 490 nm and emission at 642 nm. Inhibition curves were determined using semi-log plots and IC50 values were determined at the concentration at which enzyme activity was inhibited by 50%. Enzyme inhibitory constants (Ki values) were generated using the Cheng-Prusoff conversion (Cheng et al. (1973) Biochemical pharmacology 22, 3099-108). Assays were performed in triplicate. Data analysis was performed using GraphPad Prism version 4.00 for Windows (GraphPad Software, San Diego, Calif.).

[4] = tested on: PSMA+ PC3 PIP and PSMA− PC3 flu tumors; assay: Tissue biodistribution in mice bearing PSMA+ PC3 PIP and PSMA− PC3 flu tumors; settings: mouse, in vivo
[5] = 1 h post-injection, mean ± SD, n = 4
[6] = 2 h post-injection, mean ± SD, n = 4
[7] = 3 h post-injection, mean ± SD, n = 4

T1 sequence (Q04609 whole entry): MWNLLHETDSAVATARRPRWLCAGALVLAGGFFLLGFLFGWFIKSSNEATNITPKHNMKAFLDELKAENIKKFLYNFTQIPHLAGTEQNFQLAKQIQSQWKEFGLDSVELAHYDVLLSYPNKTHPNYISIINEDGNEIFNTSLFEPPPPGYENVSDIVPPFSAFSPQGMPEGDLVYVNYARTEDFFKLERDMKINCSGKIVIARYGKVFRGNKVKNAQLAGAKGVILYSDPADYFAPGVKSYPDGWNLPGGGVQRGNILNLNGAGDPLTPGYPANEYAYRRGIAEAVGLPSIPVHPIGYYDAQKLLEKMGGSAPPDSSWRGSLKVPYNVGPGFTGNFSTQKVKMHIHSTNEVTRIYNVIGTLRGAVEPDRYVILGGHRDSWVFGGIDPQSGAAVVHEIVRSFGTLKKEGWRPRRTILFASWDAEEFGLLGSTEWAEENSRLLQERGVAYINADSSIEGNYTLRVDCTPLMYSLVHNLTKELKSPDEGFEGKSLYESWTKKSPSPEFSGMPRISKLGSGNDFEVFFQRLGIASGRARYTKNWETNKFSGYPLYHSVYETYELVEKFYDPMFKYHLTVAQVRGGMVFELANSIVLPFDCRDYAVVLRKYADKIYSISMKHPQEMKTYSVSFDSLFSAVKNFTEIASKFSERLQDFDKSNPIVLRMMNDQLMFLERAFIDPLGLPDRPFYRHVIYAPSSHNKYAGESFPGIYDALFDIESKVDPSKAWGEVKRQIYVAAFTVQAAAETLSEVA

For `O=C(O)CN1CCN(CC(=O)O)CCN(CC(=O)O)CC1` [NOTA, 1,4,7-triazacyclononane-1,4,7-trisacetic acid], the “stability constant, KML, for 68Ga” value [1] is given as 31.1.
With `O=C([O-])CN(CCN(CC(=O)[O-])Cc1cc(CCC(=O)NCCCCCC(=O)NCCCCC(NC(=O)NC(CCC(=O)O)C(=O)O)C(=O)O)ccc1[O-])Cc1cc(CCC(=O)O)ccc1[O-].[68Ga+3]` (centres unmarked) [^68Ga-DKFZ-PSMA-11, reference compound] the “hydrophilicity/lipophilicity rank in the series” value [2] was “most hydrophilic”, the “PSMA+ PC3 PIP-to-PSMA− PC3 flu ratio” value ([3]; 1 h post-injection) was 46.62±7.57 and the “PIP:blood ratio” value [3, 5] was 35.45 ± 13.43. The “PIP:flu (PSMA+ PC3 PIP-to-PSMA− PC3 flu tumor uptake ratio)” value [3, 5] was 46.62 ± 17.57, the “PSMA+ PC3 PIP tumor uptake” value [3, 5] was 25.96 ± 9.69 % ID/g and the “PSMA− PC3 flu tumor uptake” value [3, 5] was 0.57 ± 0.14 % ID/g. The blood uptake [3, 5] was 0.75 ± 0.20 % ID/g, the heart uptake [3, 5] was 0.42 ± 0.16 % ID/g and the kidney uptake [3, 5] was 133.24 ± 21.08 % ID/g. It also gave a liver uptake [3, 5] of 0.75 ± 0.19 % ID/g, a lung uptake [3, 5] of 2.21 ± 0.48 % ID/g and a muscle uptake [3, 5] of 0.32 ± 0.12 % ID/g. It also gave a salivary gland uptake [3, 5] of 1.42 ± 0.33 % ID/g, a small intestine uptake [3, 5] of 0.39 ± 0.09 % ID/g and a spleen uptake [3, 5] of 12.35 ± 3.75 % ID/g. The “PSMA+ PC3 PIP-to-PSMA− PC3 flu ratio” value ([3]; 2 h post-injection) was 57.68±27.10, the “PIP:blood ratio” value [3, 6] was 51.88 ± 10.82 and the “PIP:flu (PSMA+ PC3 PIP-to-PSMA− PC3 flu tumor uptake ratio)” value [3, 6] was 57.68 ± 27.10. For the same compound, the “PIP:kidney ratio” value [3, 6] was 0.24 ± 0.04, the “PSMA+ PC3 PIP tumor uptake” value [3, 6] was 21.08 ± 1.17 % ID/g and the “PSMA− PC3 flu tumor uptake” value [3, 6] was 0.41 ± 0.17 % ID/g. It also gave a blood uptake [3, 6] of 0.41 ± 0.06 % ID/g, a heart uptake [3, 6] of 0.28 ± 0.06 % ID/g and a kidney uptake [3, 6] of 88.56 ± 20.09 % ID/g. For the same compound, the liver uptake [3, 6] was 0.33 ± 0.05 % ID/g, the lung uptake [3, 6] was 2.07 ± 0.68 % ID/g and the muscle uptake [3, 6] was 0.19 ± 0.09 % ID/g. It also gave a salivary gland uptake [3, 6] of 1.02 ± 0.22 % ID/g, a small intestine uptake [3, 6] of 0.19 ± 0.07 % ID/g and a spleen uptake [3, 6] of 8.87 ± 1.50 % ID/g. The “PSMA+ PC3 PIP-to-PSMA− PC3 flu ratio” value ([3]; 3 h post-injection) was 110.57±21.27, the “PIP:blood ratio” value [3, 7] was 79.55 ± 9.83 and the “PIP:kidney ratio” value [3, 7] was 0.22 ± 0.04. The “PIP:salivary gland ratio” value [3, 7] was 31.40 ± 4.85, the “PSMA+ PC3 PIP tumor uptake” value [3, 7] was 26.86±5.59 % ID/g and the “PSMA− PC3 flu tumor uptake” value [3, 7] was 0.25 ± 0.07 % ID/g. It also gave a blood uptake [3, 7] of 0.34 ± 0.06 % ID/g, a heart uptake [3, 7] of 0.20 ± 0.04 % ID/g and a kidney uptake [3, 7] of 119.54 ± 15.49 % ID/g. The liver uptake [3, 7] was 0.38 ± 0.15 % ID/g, the lung uptake [3, 7] was 1.26 ± 0.20 % ID/g and the muscle uptake [3, 7] was 0.14 ± 0.02 % ID/g. For the same compound, the salivary gland uptake [3, 7] was 0.86 ± 0.12 % ID/g, the small intestine uptake [3, 7] was 0.17 ± 0.06 % ID/g and the spleen uptake [3, 7] was 7.18 ± 2.25 % ID/g. The “spleen uptake, comparison with ^68Ga-1 or ^68Ga-2” value ([3]; all time-points, P<0.04) was “higher spleen uptake”, the “salivary gland uptake, comparison with ^68Ga-1 and ^68Ga-2” value ([3]; up to 3 h after injection, P<0.001) was “significantly higher salivary gland uptake” and the “uptake and retention in normal tissues (kidney, blood, spleen, salivary glands, PSMA-negative PC3 flu tumors), comparison” value ([3]; up to 3 h post-injection) was “highest uptake and retention”.
For `O=C(O)CN1CCN(CC(=O)O)CCN(CC(=O)O)CCN(CC(=O)O)CC1` [DOTA, 1,4,7,10-tetraazacyclododecane-1,4,7,10-tetraacetic acid], the stability constant, KML, for 68Ga ([1]; the values are: log stability constant) is listed as 21.3.
For `O=C([O-])CN1CCN(CC(=O)[O-])CC(Cc2ccc(NC(=S)NCCCCC(NC(=O)CCCCCCC(=O)NCCCCC(NC(=O)NC(CCC(=O)O)C(=O)O)C(=O)O)C(=O)O)cc2)N(CC(=O)[O-])CC1.[Ga+3]` (centres unmarked) [Ga-2], the pKi (PSMA) was 9.42.
With `O=C(O)CCc1ccc(O)c(CN(CCN(CC(=O)O)Cc2cc(CCC(=O)NCCCCCC(=O)NCCCC[C@H](NC(=O)N[C@@H](CCC(=O)O)C(=O)O)C(=O)O)ccc2O)CC(=O)O)c1` [DKFZ-PSMA-11, Glu-urea-Lys-(Ahx)-HBED-CC, reference compound] the “hydrophilicity/lipophilicity rank in the series” value [2] was “least hydrophilic; also recorded: most lipophilic”, the “PSMA-binding affinity relative to Ga-1 and Ga-2” value (PSMA) was “ten-fold higher” and the pKi (PSMA) was 10.52.
For `O=C([O-])CN1CCN(CC(=O)[O-])CC(Cc2ccc(NC(=S)NCCCCC(NC(=O)CCCCCCC(=O)NCCCCC(NC(=O)NC(CCC(=O)O)C(=O)O)C(=O)O)C(=O)O)cc2)N(CC(=O)[O-])CC1.[68Ga+3]` (centres unmarked) [^68Ga-2], the “rate of clearance from tissues, comparison of the three radiotracers” value [4] was “fastest rate of clearance from all tissues”.
Work on `O=C(O)CCC(NC(=O)NC(CCCCNC(=O)CCCCCCC(=O)NCCCCC(NC(=O)C(Cc1ccccc1)NC(=O)C(Cc1ccccc1)NC(=O)CN1CCN(CC(=O)O)CCN(CC(=O)O)CCN(CC(=O)O)CC1)C(=O)O)C(=O)O)C(=O)O` (centres unmarked) [Compound 1] yielded a pKi (PSMA) of 9.15.
For `O=C(O)CCC(NC(=O)NC(CCCCNC(=O)CCCCCCC(=O)NC(CCCCNC(=S)Nc1ccc(CC2CN(CC(=O)O)CCN(CC(=O)O)CCN2CC(=O)O)cc1)C(=O)O)C(=O)O)C(=O)O` (centres unmarked) [Compound 2], the pKi (PSMA) was 9.09.
With `O=C([O-])CN(CCN(CC(=O)[O-])Cc1cc(CCC(=O)NCCCCCC(=O)NCCCCC(NC(=O)NC(CCC(=O)O)C(=O)O)C(=O)O)ccc1[O-])Cc1cc(CCC(=O)O)ccc1[O-].[Ga+3]` (centres unmarked) [Ga-DKFZ-PSMA-11] the “hydrophilicity/lipophilicity rank in the series” value [2] was “most hydrophilic”.
Compound `O=C([O-])CN1CCN(CC(=O)[O-])CCN(CC(=O)NC(Cc2ccccc2)C(=O)NC(Cc2ccccc2)C(=O)NC(CCCCNC(=O)CCCCCCC(=O)NCCCCC(NC(=O)NC(CCC(=O)O)C(=O)O)C(=O)O)C(=O)O)CCN(CC(=O)[O-])CC1.[Ga+3]` (centres unmarked) [Ga-1] has a pKi (PSMA) of 9.48.

From US10717750B2, “68Ga-labeled NOTA-chelated PSMA-targeted imaging and therapeutic agents” (THE JOHNS HOPKINS UNIVERSITY, priority 2009, dated 2020)
